From patent publication EP0816375A1, “GLYCOCONJUGATES OF OPIATED SUBSTANCES” (ROLABO SL, priority 1995, dated 1997)

Legend:
[1] = blood of patients taking morphine; cited from earlier work
[2] = cited from earlier work; for analgesic activity: compared with the parent drug morphine
Male Sprague-Dawley rats = assay: antinociceptive tests: tail flick (tail immersion) test and paw pressure test; assay type: in vivo; settings: for degree of analgesia: intraperitoneally administered, codeine 5 mg/Kg compared with compound of example 26
Text: The compounds of the invention may be compared with the unmodified parent opiates in standard antinociceptive tests, i.e. in terms of potency and duration of action. For example, phamacological tests may be effected to examine the effects of the compounds of the invention on suppressing pain associated to nocius stimuli induced in laboratory animals. Thus, these compounds can be tested by measuring the time treated animals are insensitive to a given painful stimuli.
In spite of the different classes among the compounds of the invention which can be appreciated in accordance to their chemical structure, all are pain-related substances and therefore can be examined on the tail immersion and paw pressure tests as follows.
Male Sprague-Dawley rats weighing 200 g are used. They are housed singly in a room with controlled temperature 21 °C on a 12h light-dark cycle and given free access to food and water.
The tail flick test, is conducted as described by D'Amour F.E. and Smith D.L. in A method for determining loss of pain sensations, J.Pharmacol. Exp. Ther. 72,74, 1941.
Mechanical nociceptive thresholds are determined by the paw pressure test on the left hind paw as described in the literature (Randall L.O. and Selito J.J. A method for measurement of analgesic activity on inflamed tissue, Arch. Int. Pharmacodyn. Ther. 1957, 11, 409-419.). Pain thresholds are measured with an analgesymeter. The apparatus is set up to apply a force of 0-1000 g increasing from zero at a rate of 64 g/s. The nociceptive threshold is taken as the point at which the rat vocalize or struggle vigorously.

**Q.** What does the source list for `CN1CC[C@]23c4c5ccc(O)c4O[C@H]2[C@@H](O[C@@H]2O[C@H](C(=O)O)[C@@H](O)[C@H](O)[C@H]2O)C=C[C@H]3[C@H]1C5` [Example M6G, Morphine 6-glucuronide]?
**A.** concentration in blood relative to morphine [1]: two fold higher than morphine; analgesic activity [2]: several times more active than the parent drug; analgesic activity relative to morphine ([2]; injected intrathecally): much more active than morphine

**Q.** For `COc1ccc2c3c1O[C@H]1[C@@H](O[C@@H]4O[C@H](CO)[C@@H](O)[C@H](O)[C@H]4O)C=C[C@H]4[C@@H](C2)N(C)CC[C@@]341` [Example 26, 6-Codeinyl-β-D-glucopyranoside acetate], which degree of analgesia (Male Sprague-Dawley rats) is on record?
**A.** the same degree of analgesia

**Q.** For `CCCCCCCCNC(=O)[C@H]1O[C@@H](Oc2ccc3c4c2O[C@H]2[C@@H](O)C=C[C@H]5[C@@H](C3)N(C)CC[C@@]452)[C@H](O)[C@@H](O)[C@@H]1O` [Example 1, 3-Morphinyl n-octyl-(β-D-glucopyranosyl)-uronamide acetate], which analgesia (Male Sprague-Dawley rats; intraperitoneal administration, dosis of 0.1 mg/Kg, maximal antinociceptive response) is on record?
**A.** 100%

**Q.** Which “concentration in blood relative to morphine” value [1] does the source give for `CN1CC[C@]23c4c5ccc(O[C@@H]6O[C@H](C(=O)O)[C@@H](O)[C@H](O)[C@H]6O)c4O[C@H]2[C@@H](O)C=C[C@H]3[C@H]1C5` [Example M3G, Morphine 3-glucuronide] here?
**A.** approximately 20 fold

**Q.** What about the analgesic activity [2] of the same compound?
**A.** not analgesic

**Q.** What about the analgesia (Male Sprague-Dawley rats; intraperitoneal administration, dosis of 1 mg/Kg, same effect as morphine 5 mg/Kg) of the same compound?
**A.** 65-75%

**Q.** Which analgesia (Male Sprague-Dawley rats; rat, in vivo, ip, 5 mg/kg) does the source give for `CN1CC[C@]23c4c5ccc(O)c4O[C@H]2[C@@H](O)C=C[C@H]3[C@H]1C5` [morphine] here?
**A.** 65-75%

**Q.** Which degree of analgesia (Male Sprague-Dawley rats) does the source give for `COc1ccc2c3c1O[C@H]1[C@@H](O)C=C[C@H]4[C@@H](C2)N(C)CC[C@@]341` [codeine] here?
**A.** the same degree of analgesia as compound of example 26
